Source: publication PMC10354048 (Communications Chemistry, 2023)
In brackets after ≈: the same amount, converted by molar mass. Where no end group is shown, it is not given here.

Experiments:
Assay in all cases: microbe, parasite or virus in culture
[1] = system: S. epidermidis CW131612; settings: for MIC: Staphylococcus epidermidis, CW131612, 20 h, read-out: Minimum inhibitory concentration S. epidermidis CW131612; for Minimum inhibitory concentration S. epidermidis CW131612: broth microdilution per CSLI guidelines, cation-adjusted Mueller Hinton Broth 2, 5 × 10^5 CFU/mL, 37 °C, 20 h, range 64–0.125 µg/mL, average of three repeat assays
Experimental: (§1) Minimum inhibitory concentrations, determined by broth microdilution, are expressed as an average of three repeat assays. […] [a] MIC values expressed in μg/mL, [b] AC: American Type Culture Collection strain, [c] CW: CANWARD collection clinical isolate strain.33.
(§2) Minimum Inhibitory Concentrations (MIC) were determined for each of the bacteriocins and controls using a broth microdilution method, as per CSLI guidelines for microbial susceptibility testing. The peptides were dissolved in sterile deionized water to prepare the working stocks, with concentrations determined by UV absorbance at 280 nm[56]. Overnight cultures from the strains of interest were incubated with shaking overnight at 37 °C. Cation-adjusted Mueller Hinton Broth 2 (MHB 2) was used for the S. aureus, and S. epidermidis strains and Brain Heart Infusion (BHI) broth was utilized for the E. faecalis and E. faecium strains. The cultures were prepared and diluted to the turbidity of a 0.5 McFarland standard using MHB or BHI fresh media. Increasing concentrations of the leaderless bacteriocins were added to a 96-well polypropylene plate. The range tested for each bacteriocin was 64–0.125 µg/mL. The bacterial culture was further diluted and mixed in a 1:1 ratio with the bacteriocin solution to yield a final concentration in the wells of 5 × 10^5 CFU/mL. […] A 1:1000 dilution of the growth control was prepared in the respective media and plated onto agar (100 μL) to ensure the correct inoculum concentration (5 × 10^5 CFU/mL indicated by ≈ 50 bacterial colonies). The 96-well and agar plates were incubated at 37 °C, and growth was assessed by the formation of a pellet observable with the naked eye after 20 h. […] Each assay was performed in triplicate.
(§3) Materials and instruments […]
(§4) Minimum Inhibitory Concentration (MIC)
(§5) assays were conducted in 96-Well Clear polypropylene corner notch microplates (Corning, #11313595). For the […]

[2] = system: S. aureus CW115852; settings: for MIC: Staphylococcus aureus, CW115852, 20 h, read-out: Minimum inhibitory concentration S. aureus CW115852; for Minimum inhibitory concentration S. aureus CW115852: broth microdilution per CSLI guidelines, cation-adjusted Mueller Hinton Broth 2, 5 × 10^5 CFU/mL, 37 °C, 20 h, range 64–0.125 µg/mL, average of three repeat assays
Experimental: as §1, §2, §3, §4, §5

[3] = system: S. aureus CW114125; settings: for MIC: Staphylococcus aureus, CW114125, 20 h, read-out: Minimum inhibitory concentration S. aureus CW114125; for Minimum inhibitory concentration S. aureus CW114125: broth microdilution per CSLI guidelines, cation-adjusted Mueller Hinton Broth 2, 5 × 10^5 CFU/mL, 37 °C, 20 h, range 64–0.125 µg/mL, average of three repeat assays
Experimental: as §1, §2, §3, §4, §5

[4] = system: S. aureus AC29213; settings: for MIC: Staphylococcus aureus, AC29213, 20 h, read-out: Minimum inhibitory concentration S. aureus AC29213; for Minimum inhibitory concentration S. aureus AC29213: broth microdilution per CSLI guidelines, cation-adjusted Mueller Hinton Broth 2, 5 × 10^5 CFU/mL, 37 °C, 20 h, range 64–0.125 µg/mL, average of three repeat assays
Experimental: as §1, §2, §3, §4, §5

[5] = system: S. aureus CW113379; settings: for MIC: Staphylococcus aureus, CW113379, 20 h, read-out: Minimum inhibitory concentration S. aureus CW113379; for Minimum inhibitory concentration S. aureus CW113379: broth microdilution per CSLI guidelines, cation-adjusted Mueller Hinton Broth 2, 5 × 10^5 CFU/mL, 37 °C, 20 h, range 64–0.125 µg/mL, average of three repeat assays
Experimental: as §1, §2, §3, §4, §5

[6] = system: S. epidermidis CW130500; settings: for MIC: Staphylococcus epidermidis, CW130500, 20 h, read-out: Minimum inhibitory concentration S. epidermidis CW130500; for Minimum inhibitory concentration S. epidermidis CW130500: broth microdilution per CSLI guidelines, cation-adjusted Mueller Hinton Broth 2, 5 × 10^5 CFU/mL, 37 °C, 20 h, range 64–0.125 µg/mL, triplicate
Experimental: as §2, §3
(§6) Minimum Inhibitory Concentration (MIC) assays were conducted in 96-Well Clear polypropylene corner notch microplates (Corning, #11313595). For the assay media, cation adjusted Mueller Hinton Broth 2 (Sigma Aldrich, #90922) was used for the S. aureus, and S. epidermidis strains and Brain Heart Infusion broth (BD, #221812) was used for the E. faecalis and E. faecium […]
(§7) used, as well as melittin prepared by automated SPPS. Experimental bacterial strains used were procured from the American Type Culture collection (S. aureus 29213) and the Canadian Antimicrobial Resistance Alliance

[7] = system: E. faecalis CW133003; settings: for Minimum inhibitory concentration E. faecalis CW133003: broth microdilution per CSLI guidelines, Brain Heart Infusion broth, 5 × 10^5 CFU/mL, 37 °C, 20 h, range 64–0.125 µg/mL, average of three repeat assays
Experimental: as §1, §2, §3, §4, §5

[8] = system: E. faecium CW131126; settings: for Minimum inhibitory concentration E. faecium CW131126: broth microdilution per CSLI guidelines, Brain Heart Infusion broth, 5 × 10^5 CFU/mL, 37 °C, 20 h, range 64–0.125 µg/mL, triplicate
Experimental: as §2, §3, §6, §7

[9] = system: E. faecalis CW133346; settings: for Minimum inhibitory concentration E. faecalis CW133346: broth microdilution per CSLI guidelines, Brain Heart Infusion broth, 5 × 10^5 CFU/mL, 37 °C, 20 h, range 64–0.125 µg/mL, triplicate
Experimental: as §2, §3, §6, §7

[10] = system: E. faecium CW130826; settings: for Minimum inhibitory concentration E. faecium CW130826: broth microdilution per CSLI guidelines, Brain Heart Infusion broth, 5 × 10^5 CFU/mL, 37 °C, 20 h, range 64–0.125 µg/mL, triplicate
Experimental: as §2, §3, §6, §7

Compound | MIC [1] | MIC [2] | MIC [3] | MIC [4] | MIC [5] | MIC [6] | Minimum inhibitory concentration S. epidermidis CW131612 [1] | Minimum inhibitory concentration S. aureus CW115852 [2] | Minimum inhibitory concentration S. aureus CW114125 [3] | Minimum inhibitory concentration S. aureus AC29213 [4] | Minimum inhibitory concentration S. aureus CW113379 [5] | Minimum inhibitory concentration E. faecalis CW133003 [7] | Minimum inhibitory concentration E. faecium CW131126 [8] | Minimum inhibitory concentration S. epidermidis CW130500 [6] | Minimum inhibitory concentration E. faecalis CW133346 [9] | Minimum inhibitory concentration E. faecium CW130826 [10] | MIC ([7]; Enterococcus faecalis, CW133003, 20 h, read-out: Minimum inhibitory concentration E. faecalis CW133003) | MIC ([8]; Enterococcus faecium, CW131126, 20 h, read-out: Minimum inhibitory concentration E. faecium CW131126) | MIC ([9]; Enterococcus faecalis, CW133346, 20 h, read-out: Minimum inhibitory concentration E. faecalis CW133346) | MIC ([10]; Enterococcus faecium, CW130826, 20 h, read-out: Minimum inhibitory concentration E. faecium CW130826)
CC1(C)S[C@@H]2[C@H](NC(=O)[C@H](N)c3ccccc3)C(=O)N2[C@H]1C(=O)O [Ampicillin, ampicillin, reference compound] | > 64 µg/mL | 4 µg/mL (≈ 11.4 µM) | 16 µg/mL (≈ 45.8 µM) | 2 µg/mL (≈ 5.72 µM) | 32 µg/mL (≈ 91.6 µM) | 8 µg/mL (≈ 22.9 µM) | – | – | – | – | – | – | – | – | – | – | – | – | – | –
CC[C@H](C)[C@H](NC(=O)CN)C(=O)NCC(=O)N[C@@H](C)C(=O)N[C@H](C(=O)N[C@@H](CC(C)C)C(=O)N[C@@H](CCCCN)C(=O)N[C@H](C(=O)N[C@@H](CC(C)C)C(=O)N[C@H](C(=O)N[C@H](C(=O)NCC(=O)N[C@@H](CC(C)C)C(=O)N1CCC[C@H]1C(=O)N[C@@H](C)C(=O)N[C@@H](CC(C)C)C(=O)N[C@H](C(=O)N[C@@H](CO)C(=O)N[C@@H](Cc1c[nH]c2ccccc12)C(=O)N[C@H](C(=O)N[C@@H](CCCCN)C(=O)N[C@@H](CCCNC(=N)N)C(=O)N[C@@H](CCCCN)C(=O)N[C@@H](CCCNC(=N)N)C(=O)N[C@@H](CCC(N)=O)C(=O)N[C@@H](CCC(N)=O)C(N)=O)[C@@H](C)CC)[C@@H](C)CC)[C@@H](C)O)[C@@H](C)O)C(C)C)C(C)C [Melittin, melittin, reference compound] | – | – | – | – | – | – | 4 µg/mL (≈ 1.41 µM) | 4 µg/mL (≈ 1.41 µM) | 8 µg/mL (≈ 2.81 µM) | 8 µg/mL (≈ 2.81 µM) | 4 µg/mL (≈ 1.41 µM) | 16 µg/mL (≈ 5.62 µM) | 8 µg/mL (≈ 2.81 µM) | 8 µg/mL (≈ 2.81 µM) | 16 µg/mL (≈ 5.62 µM) | 8 µg/mL (≈ 2.81 µM) | – | – | – | –
CN(C)[C@@H]1C(O)=C(C(N)=O)C(=O)[C@@]2(O)C(O)=C3C(=O)c4c(O)cccc4[C@@](C)(O)[C@H]3C[C@@H]12 [Tetracycline, tetracycline, reference compound] | 1 µg/mL (≈ 2.25 µM) | 8 µg/mL (≈ 18 µM) | 32 µg/mL (≈ 72 µM) | < 0.125 µg/mL | 16 µg/mL (≈ 36 µM) | < 0.125 µg/mL | – | – | – | – | – | – | – | – | – | – | 1 µg/mL (≈ 2.25 µM) | > 64 µg/mL | 64 µg/mL (≈ 144 µM) | 0.25 µg/mL (≈ 0.563 µM)
MAGFLKVVQLLAKYGSKAVQLAWANKGKILDWLNAGQAIDWVVSKIKQILGIK-NH2 [L-W21L, L-lacticin Q W21L (Met^1-Lys^53)] | – | – | – | – | – | – | 16 µg/mL | 32 µg/mL | 32 µg/mL | 16 µg/mL | 16 µg/mL | 8 µg/mL | 4 µg/mL | 16 µg/mL | 4 µg/mL | 4 µg/mL | – | – | – | –
MAGFLKVVQLLAKYGSKAVQWALANKGKILDWLNAGQAIDWVVSKIKQILGIK-NH2 [L-W23L, L-lacticin Q W23L (Met^1-Lys^53)] | – | – | – | – | – | – | 32 µg/mL | 64 µg/mL | > 64 µg/mL | 32 µg/mL | 64 µg/mL | 4 µg/mL | 4 µg/mL | – | 8 µg/mL | – | – | – | – | –
